Reference: the NIST ThermoML archive (doi:10.1021/je060108f)

Key:
[1] = wn = mass fraction of the nth substance listed; details: 101 kPa, Liquid
[2] = 101 kPa, Liquid

OCCC1CCCCN1 (stereo not given) [2-(2-hydroxyethyl)piperidine] + O
[1]
Details | mass density [kg/m3] | viscosity [mPa·s]
288 K, w1 = 0.05 | 1001.8 | 1.364
288 K, w1 = 0.1 | 1004.7 | 1.775
288 K, w1 = 0.15 | 1005 | 2.313
288 K, w1 = 0.2 | 1011.1 | 2.935
288 K, w1 = 0.25 | 1014.5 | 3.921
288 K, w1 = 0.3 | 1017.3 | 5.218
293 K, w1 = 0.05 | 1000.1 | 1.298
293 K, w1 = 0.1 | 1002.3 | 1.655
293 K, w1 = 0.15 | 1003.2 | 2.097
293 K, w1 = 0.2 | 1008.3 | 2.696
293 K, w1 = 0.25 | 1012.5 | 3.506
293 K, w1 = 0.3 | 1014.9 | 4.697
298 K, w1 = 0.05 | 998.9 | 1.116
298 K, w1 = 0.1 | 1001.6 | 1.423
298 K, w1 = 0.15 | 1002.4 | 1.762
298 K, w1 = 0.2 | 1005.9 | 2.289
298 K, w1 = 0.25 | 1010.1 | 2.968
298 K, w1 = 0.3 | 1012.7 | 3.858
303 K, w1 = 0.05 | 997.6 | 1.064
303 K, w1 = 0.1 | 999.6 | 1.316
303 K, w1 = 0.15 | 1001.4 | 1.599
303 K, w1 = 0.2 | 1003.7 | 2.037
303 K, w1 = 0.25 | 1007.5 | 2.603
303 K, w1 = 0.3 | 1009.6 | 3.429
308 K, w1 = 0.05 | 996 | 0.959
308 K, w1 = 0.1 | 997.4 | 1.216
308 K, w1 = 0.15 | 998.9 | 1.489
308 K, w1 = 0.2 | 1001.7 | 1.869
308 K, w1 = 0.25 | 1003.1 | 2.382
308 K, w1 = 0.3 | 1006.4 | 3.069
313 K, w1 = 0.05 | 994.3 | 0.828
313 K, w1 = 0.1 | 996.5 | 1.015
313 K, w1 = 0.15 | 997.9 | 1.253
313 K, w1 = 0.2 | 999.3 | 1.511
313 K, w1 = 0.25 | 999.9 | 1.938
313 K, w1 = 0.3 | 1001.8 | 2.468
318 K, w1 = 0.05 | 992.4 | 0.776
318 K, w1 = 0.1 | 994.2 | 0.965
318 K, w1 = 0.15 | 995.5 | 1.156
318 K, w1 = 0.2 | 996.7 | 1.429
318 K, w1 = 0.25 | 998.8 | 1.795
318 K, w1 = 0.3 | 1000.2 | 2.229
323 K, w1 = 0.05 | 990.3 | 0.684
323 K, w1 = 0.1 | 991.7 | 0.828
323 K, w1 = 0.15 | 993.5 | 0.995
323 K, w1 = 0.2 | 994.7 | 1.193
323 K, w1 = 0.25 | 996.1 | 1.523
323 K, w1 = 0.3 | 997.3 | 1.891
328 K, w1 = 0.05 | 987.7 | 0.651
328 K, w1 = 0.1 | 988.7 | 0.778
328 K, w1 = 0.15 | 990.6 | 0.975
328 K, w1 = 0.2 | 991.9 | 1.173
328 K, w1 = 0.25 | 993 | 1.39
328 K, w1 = 0.3 | 994.3 | 1.769
333 K, w1 = 0.05 | 983.5 | 0.585
333 K, w1 = 0.1 | 985.9 | 0.695
333 K, w1 = 0.15 | 987.9 | 0.837
333 K, w1 = 0.2 | 988.7 | 1.013
333 K, w1 = 0.25 | 990.3 | 1.229
333 K, w1 = 0.3 | 991.3 | 1.536

CN(CCO)CCO [N-methyldiethanolamine]
[2]
Details | mass density [kg/m3] | viscosity [mPa·s]
288 K | 1044.1 | 142.02
313 K | 1027.2 | 34.73
333 K | 1012.6 | 14.66

CN(CCO)CCO [N-methyldiethanolamine] + O
[1]
Details | mass density, w1 = 0.1 [kg/m3] | mass density, w1 = 0.2 [kg/m3] | mass density, w1 = 0.3 [kg/m3] | mass density, w1 = 1 [kg/m3] | viscosity, w1 = 0.1 [mPa·s] | viscosity, w1 = 0.2 [mPa·s] | viscosity, w1 = 0.3 [mPa·s] | viscosity, w1 = 1 [mPa·s]
288 K | 1007.9 | 1016.7 | 1030.7 | 1044.1 | 1.703 | 2.624 | 4.399 | 142.02
313 K | 1000.4 | 1008.6 | 1019.3 | 1027.2 | 0.899 | 1.305 | 1.929 | 34.73
333 K | 990.2 | 999.5 | 1007.1 | 1012.6 | 0.63 | 0.86 | 1.218 | 14.66
